Experimental data: the NIST ThermoML archive (doi:10.1016/j.jct.2003.11.008)

Legend:
[1] = excess molar enthalpy (molar enthalpy of mixing); xn = mol fraction of the nth substance listed; conditions: 318.15 K, 101.3 kPa, Liquid
[2] = xn = mol fraction of the nth substance listed; conditions: 318.15 K, 101.3 kPa, Liquid

COC(C)=O [methyl ethanoate] + CCCCCCC
Conditions | excess molar enthalpy [kcal/mol] | excess molar volume [m3/mol]
[1], x1 = 0.0778 | 0.136 | –
[1], x1 = 0.1534 | 0.243 | –
[1], x1 = 0.2251 | 0.331 | –
[1], x1 = 0.2785 | 0.378 | –
[1], x1 = 0.3445 | 0.426 | –
[1], x1 = 0.4038 | 0.451 | –
[1], x1 = 0.4555 | 0.461 | –
[1], x1 = 0.5034 | 0.465 | –
[1], x1 = 0.5451 | 0.461 | –
[1], x1 = 0.5759 | 0.456 | –
[1], x1 = 0.6498 | 0.428 | –
[1], x1 = 0.6832 | 0.416 | –
[1], x1 = 0.7322 | 0.389 | –
[1], x1 = 0.7698 | 0.356 | –
[1], x1 = 0.8184 | 0.313 | –
[1], x1 = 0.873 | 0.25 | –
[1], x1 = 0.9036 | 0.189 | –
[1], x1 = 0.9534 | 0.108 | –
[2], x1 = 0.096 | – | 6.73e-07
[2], x1 = 0.1583 | – | 9.83e-07
[2], x1 = 0.2293 | – | 1.293e-06
[2], x1 = 0.2947 | – | 1.495e-06
[2], x1 = 0.3534 | – | 1.597e-06
[2], x1 = 0.408 | – | 1.665e-06
[2], x1 = 0.4619 | – | 1.705e-06
[2], x1 = 0.5159 | – | 1.699e-06
[2], x1 = 0.5572 | – | 1.659e-06
[2], x1 = 0.6064 | – | 1.605e-06
[2], x1 = 0.6501 | – | 1.535e-06
[2], x1 = 0.6915 | – | 1.451e-06
[2], x1 = 0.7275 | – | 1.345e-06
[2], x1 = 0.7645 | – | 1.228e-06
[2], x1 = 0.8471 | – | 8.83e-07
[2], x1 = 0.9111 | – | 5.53e-07
[2], x1 = 0.9577 | – | 2.83e-07

CCCCCOC(C)=O [pentyl ethanoate] + CCCCCCCCCCCCC
Conditions | excess molar enthalpy [kcal/mol] | excess molar volume [m3/mol]
[1], x1 = 0.0653 | 0.0763 | –
[1], x1 = 0.1352 | 0.138 | –
[1], x1 = 0.2036 | 0.191 | –
[1], x1 = 0.2679 | 0.231 | –
[1], x1 = 0.326 | 0.259 | –
[1], x1 = 0.3795 | 0.278 | –
[1], x1 = 0.4178 | 0.287 | –
[1], x1 = 0.4635 | 0.294 | –
[1], x1 = 0.5035 | 0.293 | –
[1], x1 = 0.5376 | 0.29 | –
[1], x1 = 0.5674 | 0.285 | –
[1], x1 = 0.5679 | 0.28 | –
[1], x1 = 0.6418 | 0.26 | –
[1], x1 = 0.6886 | 0.242 | –
[1], x1 = 0.7385 | 0.217 | –
[1], x1 = 0.7897 | 0.189 | –
[1], x1 = 0.8433 | 0.153 | –
[1], x1 = 0.8966 | 0.108 | –
[1], x1 = 0.9506 | 0.0582 | –
[2], x1 = 0.0955 | – | 3.07e-07
[2], x1 = 0.1575 | – | 4.63e-07
[2], x1 = 0.2323 | – | 6.22e-07
[2], x1 = 0.2961 | – | 7.29e-07
[2], x1 = 0.3517 | – | 7.96e-07
[2], x1 = 0.4152 | – | 8.59e-07
[2], x1 = 0.4689 | – | 8.87e-07
[2], x1 = 0.5228 | – | 8.91e-07
[2], x1 = 0.5724 | – | 8.76e-07
[2], x1 = 0.6226 | – | 8.35e-07
[2], x1 = 0.667 | – | 7.77e-07
[2], x1 = 0.7036 | – | 7.29e-07
[2], x1 = 0.7416 | – | 6.77e-07
[2], x1 = 0.8311 | – | 5.02e-07
[2], x1 = 0.8985 | – | 3.43e-07
[2], x1 = 0.9564 | – | 1.66e-07

CCCCCCCCCCCCC [tridecane] + CCCCOC(C)=O
Conditions | excess molar enthalpy [kcal/mol] | excess molar volume [m3/mol]
[1], x2 = 0.0771 | 0.0913 | –
[1], x2 = 0.166 | 0.17 | –
[1], x2 = 0.2551 | 0.238 | –
[1], x2 = 0.3371 | 0.286 | –
[1], x2 = 0.405 | 0.312 | –
[1], x2 = 0.4672 | 0.326 | –
[1], x2 = 0.5179 | 0.329 | –
[1], x2 = 0.5589 | 0.326 | –
[1], x2 = 0.5984 | 0.32 | –
[1], x2 = 0.6058 | 0.317 | –
[1], x2 = 0.64 | 0.306 | –
[1], x2 = 0.6863 | 0.286 | –
[1], x2 = 0.7361 | 0.259 | –
[1], x2 = 0.7879 | 0.224 | –
[1], x2 = 0.8426 | 0.183 | –
[1], x2 = 0.8971 | 0.13 | –
[1], x2 = 0.9531 | 0.0683 | –
[2], x2 = 0.1024 | – | 3.78e-07
[2], x2 = 0.1769 | – | 5.73e-07
[2], x2 = 0.2511 | – | 7.35e-07
[2], x2 = 0.3192 | – | 8.56e-07
[2], x2 = 0.3845 | – | 9.36e-07
[2], x2 = 0.4434 | – | 9.93e-07
[2], x2 = 0.5021 | – | 1.014e-06
[2], x2 = 0.5481 | – | 1.023e-06
[2], x2 = 0.6023 | – | 1.006e-06
[2], x2 = 0.6495 | – | 9.59e-07
[2], x2 = 0.6914 | – | 9.14e-07
[2], x2 = 0.7346 | – | 8.49e-07
[2], x2 = 0.7647 | – | 7.97e-07
[2], x2 = 0.8473 | – | 5.94e-07
[2], x2 = 0.9072 | – | 3.95e-07
[2], x2 = 0.9586 | – | 1.65e-07
